{
  "source": "patent US8507508B2",
  "about": "“Solid forms of pemetrexed” (Dr. Reddy's Laboratories Limited, priority 2007, dated 2013)",
  "experiment": "Physical stability on storage, checked by retention of the original XRPD pattern",
  "assay_type": "physicochemical",
  "source_text": "All XRPD data reported herein were obtained using a Bruker or PANalytical AXS D8 Advance Powder X-ray Diffractometer at Cu Kα radiation, having the wavelength 1.5418 Å. Since some margin of error is possible in the assignment of 2 theta angles and d-spacings, the preferred method of comparing X-ray powder diffraction patterns in order to identify a particular crystalline form is to overlay the X-ray powder diffraction pattern of the unknown form over the X-ray powder diffraction pattern of a known form. For all analytical data discussed in this application, it should be kept in mind that specific values depend on many factors, e.g., specific instrument, sample preparation and individual operator.\nThe obtained sample kept in a sealed polythene bag at a temperature of 20° C. to 25° C. for a period of 58 days to check the physical stability.\nThe obtained sample kept in a sealed polythene bag at a temperature of 20 to 25° C. for a period of 7 days to check the physical stability.\nThe obtained sample kept in a sealed polythene bag at a temperature of 20 to 25° C. for a period of 3 days to check the physical stability.\nThe sample was kept in a petri dish and stored at room temperature for a period of 24 hours to check the physical stability.",
  "data": [
    {"smiles": "Nc1nc2[nH]cc(CCc3ccc(C(=O)N[C@@H](CCC(=O)[O-])C(=O)[O-])cc3)c2c(=O)[nH]1.[Na+].[Na+]", "note": "[Example 1, Amorphous Pemetrexed Disodium]", "values": [
      {"measurement": "physical stability (XRPD and physical observation)", "setting": "sealed polythene bag, 20° C. to 25° C., 58 days", "value": "retain its amorphous nature"}
    ]},
    {"smiles": "Nc1nc2[nH]cc(CCc3ccc(C(=O)N[C@@H](CCC(=O)[O-])C(=O)[O-])cc3)c2c(=O)[nH]1.[Na+].[Na+]", "note": "[Example 3, Amorphous Pemetrexed Disodium]", "values": [
      {"measurement": "physical stability (XRPD)", "setting": "sealed polythene bag, 20 to 25° C., 7 days", "value": "retain its amorphous form"}
    ]},
    {"smiles": "Nc1nc2[nH]cc(CCc3ccc(C(=O)N[C@@H](CCC(=O)[O-])C(=O)[O-])cc3)c2c(=O)[nH]1.[Na+].[Na+]", "note": "[Example 4, Amorphous Pemetrexed Disodium]", "values": [
      {"measurement": "physical stability (XRPD)", "setting": "petri dish, room temperature, 24 hours", "value": "retain its polymorphic form"},
      {"measurement": "physical stability (XRPD)", "setting": "sealed polythene bag, 20 to 25° C., 3 days", "value": "retain its polymorphic form"}
    ]}
  ]
}
